The results in this text go back to ChEMBL document CHEMBL1201862, “PubChem BioAssay data set” (2004).

Molecules are shown by their SMILES.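 Test compounds were applied to cells in 96-well plates for 48 hours at 5 doses. GI50 = concentration required for 50% inhibition of growth.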 Activity calls are given as the source filed them. No stated cut-off is given here; in the data, active = GI50 up to about 1.1 µM and inactive = higher.

Some test systems named below: MOLT-4; RPMI-8226; SR; CCRF-CEM; NCI/ADR-RES; OVCAR-8; A549; DLD-1; LOX IMVI; MDA-N; MDA-MB-231; Hs-578T; SK-MEL-28; COLO 205; DMS-273; A498; SF-268; M14; RXF 393; OVCAR-3.
Common to all, as to test: NCI tumour cell line growth inhibition, 48 h

For `O=c1[nH]c2ccccc2nc1CBr`, the GI50 was 1.87 µM (inactive) in the experiment on MOLT-4; 2.06 µM (inactive) with RPMI-8226; 0.415 µM (active) in the experiment with SR; 0.399 µM (active) in the experiment on CCRF-CEM; 19.7 µM (inactive) in the experiment on NCI/ADR-RES; 13.8 µM (inactive) in the experiment with OVCAR-8. The GI50 in the experiment on A549 is 14.4 µM (inactive); in the experiment on DLD-1, 8.87 µM (inactive); in the experiment on LOX IMVI, 0.912 µM (active); in the experiment with MDA-N, 12 µM (inactive); with MDA-MB-231, 11.2 µM (inactive); in the experiment with Hs-578T it was 12.1 µM (inactive). Also, the GI50 is 12.1 µM (inactive) with SK-MEL-28; 5.78 µM (inactive) with COLO 205; 1.61 µM (inactive) with DMS-273; 21.8 µM (inactive) with A498; 11.1 µM (inactive) in the experiment on SF-268; 10.6 µM (inactive) in the experiment on M14. For the same molecule, the results for the GI50 in the experiment on RXF 393 and in the experiment with OVCAR-3 were 1.82 µM (inactive) and 1.57 µM (inactive), respectively.
